Measurements from US20060112494A1, “Method of protecting an animal skin product from metalloproteinase activity” (priority 2004, published 2006).
Where two headings read alike, the source gives them in different places.

Tests used:
[1] = tested on: Aeromonas salmonicida; set-up: key to the marks not given beside the values; conditions: for Growth/Days 1: day 1; for Growth/Days 2: day 2; for Growth/Days 7: day 7
Experimental: (§1) Nutrient agar amended with Azocoll (a substrate made up of insoluble particles of collagen impregnated with a bright azo dye) was used as the test medium to study collagenase activity. The nutrient agar was prepared and autoclaved and then was cooled to 55° C. Azocol was added to give a final concentration of 0.5%. […] Using a sterile spatula or cork-borer, the middle portion of each plate of about the size of a United States quarter, was scooped out. Fresh nutrient agar-azocoll medium containing no inhibitor was added to replace the scooped out portion of the plate. […] The bacteria were grown overnight on nutrient agar. A suspension of each culture was made in sterile water and used to inoculate the middle portion of each plate. The treated samples were incubated at 30° C. and evaluated after 24 hours, 2 days and 7 days for collagenase activity and also for the growth of the bacteria. The test cultures secreted collagenase into the medium as they grew to degrade the collagen in the azocoll medium, and collagenase activity was determined by visual inspection of the clear zone around the bacteria. All % are by weight percent of the active ingredient.

[2] = tested on: collagenase; conditions: for Collagenase Activity/Days 1: day 1; for Collagenase Activity/Days 2: day 2; for Collagenase Activity/Days 7: day 7;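 for Collagenase Activity/Days 4: nutrient agar containing 0.5% Azocoll with inhibitor, topped by a fresh hide piece, kept at 30 °C, collagenase from hide bacteria scored visually as clearing zone around growth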
[3] = tested on: Pseudomonas fluorescens; conditions: for Growth/Days 1: day 1; for Growth/Days 2: day 2; for Growth/Days 7: day 7
Experimental: as §1

[4] = tested on: collagenase; conditions: for Collagenase Activity/Days 1: day 1; for Collagenase Activity/Days 2: day 2; for Collagenase Activity/Days 7: day 7; remark: listed apart in the source;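 for Collagenase Activity/Days 4: nutrient agar containing 0.5% Azocoll with inhibitor, topped by a fresh hide piece, kept at 30 °C, collagenase from hide bacteria scored visually as clearing zone around growth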
Experimental: Nutrient agar amended with 0.5% AZOCOLL was used as the test medium to study collagenase activity. The nutrient agar was prepared and autoclaved and then was cooled to 55° C. Azocol was added to give a final concentration of 0.5%. […] Fresh hides were obtained from a tannery and were cut into pieces of approximately 2 cm square. One 2×2 cm hide sample was placed on top of the agar containing the inhibitors. Treated samples were incubated at 30° C. and evaluated after 24 hours, 2 days, 3 or 4 days and 7 days for collagenase activity and also for the growth of the bacteria. The bacteria from the hides secreted collagenase into the medium as they grew to degrade the collagen in the azocoll medium and collagenase activity was determined by visual inspection of the clear zone around the bacteria

[5] = tested on: collagenase; conditions: for Collagenase Activity/Days 1: day 1; for Collagenase Activity/Days 2: day 2; for Collagenase Activity/Days 7: day 7; remark: listed apart in the source;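 for Collagenase Activity/Days 4: nutrient agar containing 0.5% Azocoll with inhibitor, topped by a fresh hide piece, kept at 30 °C, collagenase from hide bacteria scored visually as clearing zone around growth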
[6] = tested on: mixed bacteria on fresh hide samples; set-up: Growth/Days 2 / Growth/Days 4: key to the marks not given beside the values; conditions: for Growth/Days 1: day 1; for Growth/Days 2: day 2; for Growth/Days 4: day 4;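 for all read-outs here: fresh hide pieces laid on inhibitor-containing nutrient agar supplemented with 0.5% Azocoll, incubated at 30 °C, then scored for growth of bacteria originating from the hide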

## O=C(O)CN(CCOCCOCCN(CC(=O)O)CC(=O)O)CC(=O)O [Na4EGTA, ethylene glycol-bis(β-aminoethylether)-N,N,N′N′-tetraacetic acid]
[1]; Conc. 0.1%
  Growth/Days 1: ++++
  Growth/Days 2: ++++
  Growth/Days 7: ++++
[1]; Conc. 0.25%
  Growth/Days 1: ++++
  Growth/Days 2: ++++
  Growth/Days 7: ++++
[1]; Conc. 0.5%
  Growth/Days 1: ++++
  Growth/Days 2: ++++
  Growth/Days 7: ++++
[2]; Conc. 0.1%
  Collagenase Activity/Days 1: 0
  Collagenase Activity/Days 2: 0
[2]; Conc. 0.25%
  Collagenase Activity/Days 1: 0
  Collagenase Activity/Days 2: 0
  Collagenase Activity/Days 7: 0
[2]; Conc. 0.5%
  Collagenase Activity/Days 1: 0
  Collagenase Activity/Days 2: 0
  Collagenase Activity/Days 7: 0
[2]; collagenase produced by the bacteria studied, Table 2
  performance as collagenase inhibitors (summary in words): performed very well as collagenase inhibitors
[3]; Conc. 0.025%
  Growth/Days 1: ++++
  Growth/Days 2: ++++
  Growth/Days 7: ++++
[3]; Conc. 0.05%
  Growth/Days 1: ++++
  Growth/Days 2: ++++
  Growth/Days 7: ++++
[3]; Conc. 0.075%
  Growth/Days 1: ++++
  Growth/Days 2: ++++
  Growth/Days 7: ++++
[3]; Conc. 0.1%
  Growth/Days 1: ++++
  Growth/Days 2: ++++
  Growth/Days 7: ++++
[3]; Conc. 0.2%
  Growth/Days 1: ++++
  Growth/Days 2: ++++
  Growth/Days 7: ++++
[3]; Conc. 0.3%
  Growth/Days 1: ++++
  Growth/Days 2: ++++
  Growth/Days 7: ++++
[3]; Conc. 0.4%
  Growth/Days 1: ++++
  Growth/Days 2: ++++
  Growth/Days 7: ++++
[3]; Conc. 0.5%
  Growth/Days 1: ++++
  Growth/Days 2: ++++
  Growth/Days 7: ++++
[4]; Conc. 0.025%
  Collagenase Activity/Days 1: ++++
  Collagenase Activity/Days 2: ++++
  Collagenase Activity/Days 7: ++++
[4]; Conc. 0.025%, day 4
  Collagenase Activity/Days 4: ++++
[4]; Conc. 0.05%, day 4
  Collagenase Activity/Days 4: ++++
[4]; Conc. 0.075%
  Collagenase Activity/Days 1: 0
[4]; Conc. 0.075%, day 4
  Collagenase Activity/Days 4: ++++
[4]; Conc. 0.1%
  Collagenase Activity/Days 1: 0
  Collagenase Activity/Days 2: 0
[4]; Conc. 0.1%, day 4
  Collagenase Activity/Days 4: +
[4]; Conc. 0.2%
  Collagenase Activity/Days 1: 0
  Collagenase Activity/Days 2: 0
[4]; Conc. 0.2%, day 4
  Collagenase Activity/Days 4: +
[4]; Conc. 0.3%
  Collagenase Activity/Days 1: 0
  Collagenase Activity/Days 2: 0
[4]; Conc. 0.3%, day 4
  Collagenase Activity/Days 4: +
[4]; Conc. 0.4%
  Collagenase Activity/Days 1: 0
  Collagenase Activity/Days 2: 0
[4]; Conc. 0.4%, day 4
  Collagenase Activity/Days 4: 0
[4]; Conc. 0.5%, column day 4, footnote **: data collected on Day 3
  Collagenase Activity/Days 4: 0**
[4]; Conc. 0.5%
  Collagenase Activity/Days 1: 0
  Collagenase Activity/Days 2: 0
  Collagenase Activity/Days 7: 0
[4]; collagenase produced by the mixed culture of bacteria from the hides
  performance as collagenase inhibitors (summary in words): performed very well as collagenase inhibitors
[5]; Conc. 0.025%
  Collagenase Activity/Days 1: ++++
  Collagenase Activity/Days 2: ++++
  Collagenase Activity/Days 7: ++++
[5]; Conc. 0.075%
  Collagenase Activity/Days 1: 0
[5]; Conc. 0.1%
  Collagenase Activity/Days 1: 0
  Collagenase Activity/Days 2: 0
[5]; Conc. 0.2%
  Collagenase Activity/Days 1: 0
  Collagenase Activity/Days 2: 0
[5]; Conc. 0.3%
  Collagenase Activity/Days 1: 0
  Collagenase Activity/Days 2: 0
[5]; Conc. 0.4%
  Collagenase Activity/Days 1: 0
  Collagenase Activity/Days 2: 0
[5]; Conc. 0.5%
  Collagenase Activity/Days 1: 0
  Collagenase Activity/Days 2: 0
  Collagenase Activity/Days 7: 0
[5]; collagenase produced by the bacteria studied, Table 1
  performance as collagenase inhibitors (summary in words): performed very well as collagenase inhibitors
[6]; Conc. 0.025%
  Growth/Days 1: ++++
  Growth/Days 2: ++++
  Growth/Days 4: ++++
[6]; Conc. 0.05%
  Growth/Days 1: ++++
  Growth/Days 2: ++++
  Growth/Days 4: ++++
[6]; Conc. 0.075%
  Growth/Days 1: ++++
  Growth/Days 2: ++++
  Growth/Days 4: ++++
[6]; Conc. 0.1%
  Growth/Days 1: ++++
  Growth/Days 2: ++++
  Growth/Days 4: ++++
[6]; Conc. 0.2%
  Growth/Days 1: ++++
  Growth/Days 2: ++++
  Growth/Days 4: ++++
[6]; Conc. 0.3%
  Growth/Days 1: ++++
  Growth/Days 2: ++++
  Growth/Days 4: ++++
[6]; Conc. 0.4%
  Growth/Days 1: +++
  Growth/Days 2: ++++
  Growth/Days 4: ++++
[6]; Conc. 0.5%
  Growth/Days 1: +++
  Growth/Days 2: ++++
  Growth/Days 4: ++++
